{"source": "patent US12697330B2", "about": "“Therapeutic methods using vadadustat” (Akebia Therapeutics, Inc., priority 2021, dated 2026)", "system": "hemoglobin (Hb)", "assay": "Phase 2 study in hemodialysis subjects converting from epoetin alfa, Main Study: efficacy (hemoglobin)", "assay_type": "in vivo, human", "details": "for Change in Hb from Primary Evaluation Period to Secondary Evaluation Period, Mean (SD) / Change in Hb from Primary Evaluation Period to Secondary Evaluation Period, Median / Hb at Primary Evaluation Period (Average of Weeks 10 to 12), Mean (SD) / Hb at Primary Evaluation Period (Average of Weeks 10 to 12), Median / Hb at Secondary Evaluation Period (Average of Weeks 18 to 20), Mean (SD) / Hb at Secondary Evaluation Period (Average of Weeks 18 to 20), Median: completed 12 weeks of treatment", "text": "The primary objective was to assess the efficacy and safety of daily dosing of vadadustat compared to epoetin alfa for 12 weeks in hemodialysis subjects. Additional objectives included to assess the efficacy and safety of three times weekly (TIW) dosing of vadadustat in selected hemodialysis subjects who have been successfully managed with daily dosing of vadadustat through Week 12, to evaluate the PK/PD of daily and TIW dosing of vadadustat in hemodialysis subjects compared to epoetin alfa, and to assess the efficacy and safety of several dosing strategies of vadadustat compared to epoetin alfa during a 20-week Treatment Period in hemodialysis subjects.\nThe Main study population consisted of adult subjects receiving chronic, outpatient in-center hemodialysis three times weekly (TIW), with 2 screening hemoglobin (Hb) values between 8.5 and 11.0 g/dL (inclusive) and on maintenance treatment with epoetin alfa <300 U/kg/week.\nEfficacy Endpoints. The primary endpoint was the mean change in Hb between Baseline (average pretreatment Hb) and the primary evaluation period (average Hb from Weeks 10 to 12). Secondary endpoints included proportion of subjects with Hb values within the target range (10.0 to 11.0 g/dL, inclusive) at the primary evaluation period (Weeks 10-12) and for subjects who transitioned to TIW vadadustat dosing, mean change in Hb from primary evaluation period (average Hb from Weeks 10-12) to the secondary period (average Hb from Weeks 18-20). Other secondary endpoints included mean change in Hb from Baseline (average pretreatment Hb) and the secondary evaluation period (average Hb from Weeks 18-20), proportion of subjects with Hb values within the target range (10.0 to 11.0 g/dL, inclusive) at the secondary evaluation period (Weeks 18 to 20), for subjects who transitioned to TIW vadadustat dosing, proportion of subjects with Hb values within the target range (10.0 to 11.0 g/dL, inclusive) at the secondary evaluation period (Weeks 18-20), proportion of subjects with a mean increase in Hb from Baseline to the primary evaluation period ≥0.5 g/dL (average Hb from Weeks 10-12) or with Hb values within the target range (10.0 to 11.0 g/dL, inclusive) at the primary evaluation period (Weeks 10-12), proportion of subject with a mean increase in Hb from Baseline to the secondary evaluation period ≥0.5 g/dL (average Hb from Weeks 18-20) or with Hb values within the target range (10.0 to 11.0 g/dL, inclusive) at the secondary evaluation period (Weeks 18-20), intravenous (IV) iron supplementation, ESA rescue, and RBC transfusion.\nStudy Design. This was a Phase 2, randomized, open-label study to evaluate vadadustat for the treatment of anemia in hemodialysis subjects converting from epoetin alfa therapy. For all subjects (Main study and ESA hyporesponder parallel study), the study included a Screening Period, a study Treatment Period, and a Safety Follow-Up Period as described below. PK and PD sampling were done throughout the study. The aim was to achieve and maintain Hb levels within the target range of 10.0 to 11.0 g/dL, inclusive, while targeting the middle of the range and minimizing excursions outside the target range.\nRandomization. Subjects were randomized to either a vadadustat treatment arm or epoetin alfa treatment arm. Randomization was stratified by mean weekly epoetin alfa dose calculated over a period of 8 weeks prior to SV2: low epoetin alfa dose group (≤90 U/kg/week) or high epoetin alfa dose group (>90 to <300 U/kg/week). In the low epoetin alfa dose group, subjects were randomized in a 3:3:2 ratio to receive either an initial vadadustat daily dose of 450 mg (3 tablets) or 300 mg (2 tablets), or epoetin alfa. In the high epoetin alfa dose group, subjects were randomized in a 3:3:3:2 ratio to receive either an initial vadadustat daily dose of 600 mg (4 tablets), 450 mg (3 tablets) or 300 mg (2 tablets), or epoetin alfa.\nStudy Treatment Period (Baseline/Day 1 to Week 20). […]", "key": {"[1]": {"details": "Vadadustat, subjects did not switch"}, "[2]": {"details": "Vadadustat, subjects switched from QD to TIW"}, "[3]": {"details": "whole treatment group, Main Study"}}, "data": [{"smiles": "O=C(O)CNC(=O)c1ncc(-c2cccc(Cl)c2)cc1O", "note": "[vadadustat, {[5-(3-chlorophenyl)-3-hydroxypyridine-2-carbonyl]amino}acetic acid]", "values": [{"measurement": "Mean change from baseline in Hb over time, versus comparator", "setting": "Randomized population, FIG. 13 and FIG. 14", "value": "lower than the epoetin alfa treatment group throughout"}, {"measurement": "Change in Hb from Primary Evaluation Period to Secondary Evaluation Period, Mean (SD)", "setting": "Vadadustat Total, Overall", "value": "−0.064 (1.2236) g/dL"}, {"measurement": "Change in Hb from Primary Evaluation Period to Secondary Evaluation Period, Median", "setting": "Vadadustat Total, Overall", "value": -0.033, "unit": "g/dL"}, {"measurement": "Hb at Primary Evaluation Period (Average of Weeks 10 to 12), Mean (SD)", "setting": "Vadadustat Total, Overall", "value": "9.809 (1.1548) g/dL"}, {"measurement": "Hb at Primary Evaluation Period (Average of Weeks 10 to 12), Median", "setting": "Vadadustat Total, Overall", "value": 9.900, "unit": "g/dL"}, {"measurement": "Hb at Secondary Evaluation Period (Average of Weeks 18 to 20), Mean (SD)", "setting": "Vadadustat Total, Overall", "value": "9.876 (0.8867) g/dL"}, {"measurement": "Hb at Secondary Evaluation Period (Average of Weeks 18 to 20), Median", "setting": "Vadadustat Total, Overall", "value": 9.800, "unit": "g/dL"}, {"measurement": "Change in Hb from Primary Evaluation Period to Secondary Evaluation Period, Mean (SD)", "setting": "[1]", "value": 0.039, "unit": "g/dL"}, {"measurement": "Change in Hb from Primary Evaluation Period to Secondary Evaluation Period, Median", "setting": "[1]", "value": 0.067, "unit": "g/dL"}, {"measurement": "Hb at Primary Evaluation Period (Average of Weeks 10 to 12), Mean (SD)", "setting": "[1]", "value": "9.694 (1.2248) g/dL"}, {"measurement": "Hb at Primary Evaluation Period (Average of Weeks 10 to 12), Median", "setting": "[1]", "value": 9.483, "unit": "g/dL"}, {"measurement": "Hb at Secondary Evaluation Period (Average of Weeks 18 to 20), Mean (SD)", "setting": "[1]", "value": "9.854 (0.8378) g/dL"}, {"measurement": "Hb at Secondary Evaluation Period (Average of Weeks 18 to 20), Median", "setting": "[1]", "value": 9.800, "unit": "g/dL"}, {"measurement": "Change in Hb from Primary Evaluation Period to Secondary Evaluation Period, Mean (SD)", "setting": "Vadadustat, subjects did not switch, listed as Vadadustat", "value": "0.039 (1.2286) g/dL"}, {"measurement": "Change in Hb from Primary Evaluation Period to Secondary Evaluation Period, Mean (SD)", "setting": "[2]", "value": -0.422, "unit": "g/dL"}, {"measurement": "Change in Hb from Primary Evaluation Period to Secondary Evaluation Period, Median", "setting": "[2]", "value": -0.350, "unit": "g/dL"}, {"measurement": "Hb at Primary Evaluation Period (Average of Weeks 10 to 12), Mean (SD)", "setting": "[2]", "value": "10.376 (0.3754) g/dL"}, {"measurement": "Hb at Primary Evaluation Period (Average of Weeks 10 to 12), Median", "setting": "[2]", "value": 10.433, "unit": "g/dL"}, {"measurement": "Hb at Secondary Evaluation Period (Average of Weeks 18 to 20), Mean (SD)", "setting": "[2]", "value": "9.955 (1.0716) g/dL"}, {"measurement": "Hb at Secondary Evaluation Period (Average of Weeks 18 to 20), Median", "setting": "[2]", "value": 9.900, "unit": "g/dL"}, {"measurement": "Change in Hb from Primary Evaluation Period to Secondary Evaluation Period, Mean (SD)", "setting": "Vadadustat, subjects switched from QD to TIW, listed as Vadadustat", "value": "−0.422 (1.1708) g/dL"}, {"measurement": "proportion of subjects having Hb values within target range at Weeks 10 to 12", "setting": "vadadustat 300 mg group of the high epoetin alfa stratum", "value": 8.3, "unit": "%"}, {"measurement": "course of Hb versus baseline", "setting": "vadadustat 300 mg, high epoetin alfa stratum", "value": "decrease from baseline in Hb up to Week 10, after which Hb began to return towards baseline"}, {"measurement": "mean (SD) Hb at the PEP (Weeks 10 to 12)", "setting": "[3]", "value": "9.78 (1.048) g/dL"}, {"measurement": "mean (SD) changes from baseline in Hb at the PEP", "setting": "[3]", "value": "−0.35 (0.976) g/dL"}, {"measurement": "proportion of subjects having Hb values within target range at the PEP (Weeks 10 to 12)", "setting": "[3]", "value": 32.7, "unit": "%"}]}]}
